Test results published in patent US6710090B2, “Inhibitory or blocking agents of molecular generating and/or inducing functions” (priority 1994, dated 2004).

Assay: Comparison of 4,4-dimethyl-2-cyclohexen-1-one with Yoshixol on all parameters
Excerpt: In addition, higher dosage was needed to be obtained qualitatively an identical effect to the above-mentioned effect of Yoshixol. Then, the concentration of 4,4-dimethyl-2-cyclohexen-1-one was required about 30-100 times dosage of Yoshixol on the biological samples, and about 10-50 times dosage of Yoshixol on lower molecular substance and macromolecular substance of non-living samples.

## CC1(C)C=CC(=O)CC1 [4,4-dimethyl-2-cyclohexen-1-one]
All parameters demonstrated by Yoshixol
  control, inhibit and/or block function generated by multi-dimensional structure: similarly to Yoshixol
On the biological samples
  concentration required for an effect identical to Yoshixol: 30-100 times dosage of Yoshixol
